Assay results: patent US20230320995A1, “IONIZABLE CATIONIC LIPIDS AND LIPID NANOPARTICLES” (CAPSTAN THERAPEUTICS, INC., priority 2022, published 2023)

How the values were obtained:
[1] = ex vivo stability in mouse plasma; format: in vitro ADME; settings: 37° C.; for ex vivo Mouse Plasm Stability % Remaining at 2 Hours: CD-1 mouse plasma, 1 μM lipid
Protocol: To determine the stability of the disclosed lipids in mouse plasma lipid stock solution was prepared by dissolution of the lipid in isopropanol at the concentration of 5 mg/mL. A requisite volume of the lipid-isopropanol solution was then diluted to 100 μM concentration at a total volume of 10.0 mL with 50:50 (v/v) ethanol/water. Ten microliters of this 100 μM solution was spiked into 10.0 mL of mouse plasma (BioIVT, Lot MSE394920, CD-1 mouse, anticoagulant: sodium heparin, not filtered) that was prewarmed to 37° C. and stirred at 50 rpm with a magnetic stir bar. The starting concentration of lipids in plasma was thus 1 μM. Aliquots (50 μL) were taken after 0, 15, 30, 45, 60, and 120 minutes, transferred to microcentrifuge tubes and quenched with three volumes (150 μL) of ice cold acetonitrile/methanol (4:1). Positive control incubations utilized the same plasma, with Benfluorex (1 μM) as the substrate with Labetalol (1.0 μgl) as the in situ disappearance. The quenched solutions were vortexed, centrifuged for 5 minutes at 13,000 rpm, and supernatant (100 μL) transferred to a 96-well plate and diluted with water (200 μL, 0.1% FA). After filtration through a 0.45 μm 96-well filtering plate, the filtrates were analyzed by LC-MS (Waters AQUITY I-class UPLC system, ThermoScientific Vanquish UPLC system consisting of a binary pump, autosampler, and column compartment, Waters Xevo G2-XS QT of mass spectrometer; Phenomenex F5, 1.7 μm, 2.1×50 mm column). Mobile phase A was 0.1% formic acid in water, and mobile phase B was 0.1% formic acid in acetonitrile. The flow rate was 0.6 mL/min. Elution gradient was as follows: time, 0.5 min: 20% B; 0.5-2 min: 20-100% B; 2-4.8 min: 100% B; 4.8-5.45 min: 100-20% B. Mass spectrometry was in positive scanning mode from 600-1100 m/z. The peak of the molecular ion of the lipids was integrated in extracted ion chromatography (XIC) using Xcalibur software (Thermo Fisher). The relative peak area compared to T=0, after normalization by the peak area of the internal standard, was used as the percentage of the lipid remaining at each time point. T1/2 values were calculated using the first-order decay model.

mouse splenic T cells = test: targeted transfection of T cells in vitro with CD5-targeted tLNP; format: cell-based; settings: activated mouse splenic T cells, 0.6 μg tLNP per well; for transfection rate (proportion of CD3+ cells mCherry positive): 1 hour, read next day
Protocol: To assess the performance of tLNP described in Example 35 they were used to transfect mouse T cells in tissue culture. Mouse splenic T cells were isolated from mechanically dissociated mouse spleens using a standard T cell isolation kit (Stem Cell Technologies #19851). Isolated T cells were cultured in complete RPMI medium supplemented with murine interleukin-2 in the presence of CD3/CD28 T cell activation beads (Gibco #11453D) for 3 days. Following activation, T cells were magnetically separated from the activation beads and transferred to a 96-well plate at a concentration of 2×10^5 cells per well in 100 μL of complete RPMI medium. tLNP formulations as described in Example 35 (above) were diluted to 100 μg/mL and 6 μL (0.6 μg) of tLNP was added to each well of cells to be tested. Cells were incubated with tLNPs at 37° C. for 1 hour before tLNPs were washed away by centrifuging the plate, removing the supernatant, and replacing with fresh medium. Transfected cells were then returned to the incubator overnight. The next day, cells were washed and resuspended in stain buffer containing fluorescently tagged antibodies against T cells markers for 30 minutes before a final wash. After washing, cells were resuspended in stain buffer and run on the Novocyte Quanteon flow cytometer to detect mCherry expression as well as murine T cell markers. Results for CD3^+ T cells are depicted in FIG. 6.

[2] = physical-chemical properties of LNP encapsulating mCherry mRNA; format: physicochemical; settings: for Hydrodynamic diameter: LNP: ionizable lipid/DSPC/cholesterol/DMG-PEG2000 50:10:38.5:1.5, mCherry mRNA, pH 7.4 Tris, 25° C.
Text: The mRNA was encapsulated in LNP using a self-assembly process in which an aqueous solution of mRNA at pH=3.5 is rapidly mixed with a solution of lipids dissolved in ethanol, then followed by stepwise phosphate and Tris buffer dilution and tangential flow filtration (TFF) purification. LNP composition in this study was: ionizable cationic lipid/distearoylphosphatidylcholine/cholesterol/DMG-PEG2000 (50:10:38.5:1.5 mol/mol) and were encapsulated at an N/P ratio (the ratio of positively-chargeable lipid amine (N=nitrogen) groups to negatively-charged nucleic acid phosphate (P) groups) at 6. LNPs were frozen at −80° C. […] The diameter of the nanoparticles was measured by dynamic light scattering using a Zetasizer Nano ZS (Malvern Instruments Ltd., Malvern, UK) instrument. Size measurement was carried out in pH 7.4 Tris buffer at 25° C. in relevant disposable capillary cells. A non-invasive back scatter system (NIBS) with a scattering angle of 173° was used for size measurements.

Encapapsulation Efficiency ([2]; LNP 50:10:38.5:1.5, mCherry mRNA, N/P 6) [%]	PDI (polydispersity index) ([2]; LNP 50:10:38.5:1.5, mCherry mRNA, DLS)	Structure (SMILES)	ex vivo Mouse Plasm Stability % Remaining at 2 Hours [1] [%]	transfection rate (proportion of CD3+ cells mCherry positive) (mouse splenic T cells)	Hydrodynamic diameter ([2]; N/P 6, DLS) [nm]	half-life at 1 μM ([1]; CD-1, mouse plasma) [h]	level of mCherry expression (MFI) (mouse splenic T cells)
99	0.13	CCCCCCCCCC(=O)OCC(COC(=O)CCCCCCCCC)CC(=O)OCCN(CCOC(=O)CC(COC(=O)CCCCCCCCC)COC(=O)CCCCCCCCC)C(=O)NCCCN(C)C [Compound A-2]	72	poor, but still positive	73	–	–
–	–	CCCCCCCCC(=O)OCC(COC(=O)CCCCCCCC)CC(=O)OCCN(CCOC(=O)CC(COC(=O)CCCCCCCC)COC(=O)CCCCCCCC)C(=O)OCCN(C)C [Compound A-11]	86	~80%	82	< 10	high level of expression
